Measured values as given in article PMC10607377, “The PKG Inhibitor CN238 Affords Functional Protection of Photoreceptors and Ganglion Cells against Retinal Degeneration” (International Journal of Molecular Sciences, 2023).
pEC50: −log10 of the molar value.

Legend:
[1] = target: T1, PKG1β (Homo sapiens, UniProt Q13976)
T1 construct: gene PRKG1
T1 sequence (Q13976 4-686 isoform Q13976-2): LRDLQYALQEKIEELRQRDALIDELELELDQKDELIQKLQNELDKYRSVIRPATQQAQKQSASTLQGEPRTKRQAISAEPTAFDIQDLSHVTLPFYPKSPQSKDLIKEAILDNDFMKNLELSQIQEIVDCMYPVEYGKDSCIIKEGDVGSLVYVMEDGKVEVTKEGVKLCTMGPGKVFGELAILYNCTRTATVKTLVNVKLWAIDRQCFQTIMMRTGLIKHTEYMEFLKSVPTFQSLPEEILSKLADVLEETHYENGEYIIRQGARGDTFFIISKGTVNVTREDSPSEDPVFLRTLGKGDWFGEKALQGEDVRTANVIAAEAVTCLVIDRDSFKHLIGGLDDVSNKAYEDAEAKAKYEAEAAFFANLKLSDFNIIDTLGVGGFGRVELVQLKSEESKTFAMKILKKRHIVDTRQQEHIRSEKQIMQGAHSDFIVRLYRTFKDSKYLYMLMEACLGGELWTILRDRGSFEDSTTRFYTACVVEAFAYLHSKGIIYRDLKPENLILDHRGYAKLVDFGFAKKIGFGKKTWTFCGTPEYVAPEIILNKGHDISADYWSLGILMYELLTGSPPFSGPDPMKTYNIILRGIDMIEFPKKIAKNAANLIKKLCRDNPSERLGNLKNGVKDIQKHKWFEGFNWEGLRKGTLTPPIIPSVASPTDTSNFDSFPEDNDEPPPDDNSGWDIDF

[2] = target: T2, PKG2 (Homo sapiens, UniProt Q13237); assay: coupled spectrophotometric kinase activation assay; type: biochemical
T2 construct: gene PRKG2; FLAG-Strep-Strep-tagged human PKG2 (1–762) WT
T2 sequence (Q13237 1-762): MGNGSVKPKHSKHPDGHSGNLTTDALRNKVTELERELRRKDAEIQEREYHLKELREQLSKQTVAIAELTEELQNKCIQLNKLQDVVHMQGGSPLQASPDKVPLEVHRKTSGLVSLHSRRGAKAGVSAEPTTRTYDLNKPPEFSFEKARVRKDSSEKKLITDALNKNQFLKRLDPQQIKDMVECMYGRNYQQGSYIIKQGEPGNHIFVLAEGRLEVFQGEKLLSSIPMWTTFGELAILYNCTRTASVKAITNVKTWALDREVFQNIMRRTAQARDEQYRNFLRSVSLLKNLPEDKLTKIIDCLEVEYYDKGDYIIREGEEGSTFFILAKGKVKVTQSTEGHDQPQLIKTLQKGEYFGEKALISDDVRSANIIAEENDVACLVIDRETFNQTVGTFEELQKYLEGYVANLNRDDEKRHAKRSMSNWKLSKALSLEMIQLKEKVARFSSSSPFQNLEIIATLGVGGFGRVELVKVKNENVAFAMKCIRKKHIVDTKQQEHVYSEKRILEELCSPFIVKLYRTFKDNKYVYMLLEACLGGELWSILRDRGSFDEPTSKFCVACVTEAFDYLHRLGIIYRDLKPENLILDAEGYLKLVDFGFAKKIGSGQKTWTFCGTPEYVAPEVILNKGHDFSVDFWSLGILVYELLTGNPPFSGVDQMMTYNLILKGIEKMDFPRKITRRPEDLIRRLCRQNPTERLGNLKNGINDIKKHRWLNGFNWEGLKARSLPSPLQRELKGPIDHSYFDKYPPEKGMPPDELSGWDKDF

[3] = target: T3, cone CNG channel (CNGA3) (Homo sapiens, UniProt Q16281+Q9NQW8); assay: inside-out patch-clamp, concentration-activation; type: cell-based
T3 construct: CNGA3:CNGB3 expressed in Xenopus oocytes; with CNGB3
T3 sequence (Q16281 1-694): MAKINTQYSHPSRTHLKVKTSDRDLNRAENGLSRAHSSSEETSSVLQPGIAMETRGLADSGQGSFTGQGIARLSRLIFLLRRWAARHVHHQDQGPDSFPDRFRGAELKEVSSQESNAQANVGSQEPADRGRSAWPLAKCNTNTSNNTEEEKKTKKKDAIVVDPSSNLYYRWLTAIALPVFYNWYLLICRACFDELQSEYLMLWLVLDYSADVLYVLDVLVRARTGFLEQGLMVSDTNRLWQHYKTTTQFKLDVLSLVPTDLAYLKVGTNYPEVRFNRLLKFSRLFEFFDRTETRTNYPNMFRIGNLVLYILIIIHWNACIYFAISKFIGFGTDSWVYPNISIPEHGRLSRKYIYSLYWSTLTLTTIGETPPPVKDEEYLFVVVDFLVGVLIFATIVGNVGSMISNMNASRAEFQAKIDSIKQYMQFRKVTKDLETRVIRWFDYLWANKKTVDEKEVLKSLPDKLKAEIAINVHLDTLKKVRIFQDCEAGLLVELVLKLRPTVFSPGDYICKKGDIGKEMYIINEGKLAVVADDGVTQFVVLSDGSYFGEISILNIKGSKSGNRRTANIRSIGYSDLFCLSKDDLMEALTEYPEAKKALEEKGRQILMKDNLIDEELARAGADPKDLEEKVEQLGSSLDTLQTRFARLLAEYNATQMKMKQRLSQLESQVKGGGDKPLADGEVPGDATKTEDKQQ
T3 sequence (Q9NQW8 1-809): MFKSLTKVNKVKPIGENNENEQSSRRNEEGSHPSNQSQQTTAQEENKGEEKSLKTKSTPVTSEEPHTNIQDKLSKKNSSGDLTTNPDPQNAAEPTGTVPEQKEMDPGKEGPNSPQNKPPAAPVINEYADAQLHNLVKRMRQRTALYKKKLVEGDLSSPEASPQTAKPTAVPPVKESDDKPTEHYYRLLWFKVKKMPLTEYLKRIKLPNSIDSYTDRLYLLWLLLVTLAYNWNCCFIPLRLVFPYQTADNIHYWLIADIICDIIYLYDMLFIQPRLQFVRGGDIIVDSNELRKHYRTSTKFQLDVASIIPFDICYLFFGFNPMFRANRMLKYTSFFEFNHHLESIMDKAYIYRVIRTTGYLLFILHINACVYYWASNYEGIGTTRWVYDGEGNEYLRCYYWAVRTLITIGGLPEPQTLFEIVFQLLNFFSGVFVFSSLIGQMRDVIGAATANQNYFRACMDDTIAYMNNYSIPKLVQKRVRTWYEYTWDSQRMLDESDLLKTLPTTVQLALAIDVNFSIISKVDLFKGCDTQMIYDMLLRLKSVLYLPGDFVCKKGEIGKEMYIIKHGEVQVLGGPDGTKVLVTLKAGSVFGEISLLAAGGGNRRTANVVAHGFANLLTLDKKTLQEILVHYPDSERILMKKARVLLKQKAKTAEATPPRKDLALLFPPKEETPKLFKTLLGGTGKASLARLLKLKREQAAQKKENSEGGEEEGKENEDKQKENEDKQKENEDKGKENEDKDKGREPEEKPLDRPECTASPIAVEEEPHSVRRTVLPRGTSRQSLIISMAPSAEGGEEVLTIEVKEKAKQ

Q: Which “coupled spectrophotometric kinase activation assay” value [1] does the source give for Nc1nc2c(ncn2[C@@H]2O[C@@H]3COP(=O)(O)O[C@H]3[C@H]2O)c(=O)[nH]1 [cGMP] here?
A: Activation with cGMP was determined for all PKG isoforms

Q: What about the “coupled spectrophotometric kinase activation assay” value [2] of the same molecule?
A: Activation with cGMP was determined for all PKG isoforms

Q: What about the pEC50 [3] of the same molecule?
A: 4.97
